In patent EP0335545B2, “Pharmaceutical formulations for parenteral use” (UNIVERSITY OF FLORIDA, priority 1988, dated 1989):
Values after ≈ are worked out from the molar mass of the structure shown.

Tests used:
[1] = Preparation of solid freeze-dried HPCD complexes: degree of incorporation; assay type: physicochemical; settings: for Amount of Drug in Dry Complex: freeze-dried complex from 50% w/w HPCD (ASDS 5.1)
Procedure: An excess of E2-CDS was added and the solution then was purged with helium. The resulting suspension was then sonicated for 30 minutes, filtered through a glass filter (ASTM 10-15M, Pyrex No. 36060) and freeze-dried overnight. Best results were obtained by hard-freezing the aqueous solution of the E2-CDS/HPCD complex for at least 10 hours before lyophilization. The degree of complex formation was determined by dissolving a small amount of the dry complex in methanol and then analyzing by high pressure liquid chromatography (HPLC).
An excess of E2-CDS or other CDS was added to a 50% w/w solution of HPCD. The suspension was sonicated for 30 minutes, filtered through 0.45 µm PVDF membranes and freeze-dried. The degree of incorporation was determined either spectrophotometrically or by HPLC. In some cases, the effect of solubilizing agents on the degree of incorporation was examined. This involved adding small amounts of polyoxyethylene 20 cetyl ether (Brij), polyoxyethylene sorbitan monooleate (Tween 80) or ethanol to the aqueous solution prior to lyophilization.
The retention time was 5.2 min. Other compounds were assayed spectrophotometrically.
The solution was degassed and the suspension was sonicated for 30 minutes, after which it was filtered and the filtrate was lyophilized. The dried filtrate contained 65.6 mg testosterone propionate or 29.6 mg T-CDS1 per gram of cyclodextrin complex. Compounds were analyzed for decomposition by thin-layer chromatography and ultraviolet absorption.

[2] = Maximum concentrations of selected CDS in varying concentrations of selected cyclodextrins; assay type: physicochemical
Procedure: In further testing, maximum concentrations of selected CDS in varying concentrations of selected cyclodextrins were determined. The concentration of E2-CDS (mg/mL) was as follows: […]

[3] = Solubilizing effect of a 50% w/w solution of HPCD on steroids and CDS; settings: 50% w/w aqueous hpcd
Procedure: An excess of E2-CDS was sonicated with an aqueous solution of the appropriate solubilizing agent for 30 minutes. The suspension was then centrifuged, filtered through 0.45 µm polyvinylidene difluoride (Millex-HV4, Millipore®) membranes and analyzed by HPLC. […] An estimation of the bulk equilibrium constant was obtained by correlating the millimolarity of E2-CDS solubilized and the millimolarity of the cyclodextrin added. This latter value was calculated using the average molecular weight of the isomeric mixture determined by mass spectroscopy. The solubilizing effect of a 50% w/w solution of HPCD was also examined for a series of steroids and dihydropyridines (CDS). These studies were carried out in a similar manner to those previously described.
For the CDS, the wavelength monitored was 360 nm while for estrogen 220 nm was used.
Separation was achieved on an Analytical Sciences, Inc. (ASI) 10 µm particle size, C18 reversed phase 30 cm x 3.9 mm i.d. analytical column. The flow rate was 1 mL/min, the compounds were detected at 360 nm and in all determinations the temperature was ambient. […] For the GABA-CDS1, a mobile phase consisting of 50:1:1:48 of the same components was required. […] Other compounds were assayed spectrophotometrically.

[4] = Observation of toxicity on injection (Experiments 1-3); assay type: in vivo, Male Sprague-Dawley rats; settings: rats
Procedure: On day 15 after orchidectomy, rats were ether-anesthetized and the right external jugular vein exposed. Animals were then administered one of the following: testosterone-chemical delivery system (T-CDS1 or T-CDS2), testosterone (Steraloids Inc., Wilton, NH) or the vehicle, dimethyl sulfoxide (DMSO; Fisher Scientific, Fair Lawn, NJ). The testosterone-chemical delivery systems were given at doses equimolar to testosterone (25 mg/kg) so that T-CDS1 was administered at 35.5 mg/kg and rats received T-CDS2 at a dose of 45.1 mg/kg. DMSO was injected at a volume of 1 mL/kg. All compounds were administered by infusion over a 2 minute period. One milliliter of blood was withdrawn from the external jugular vein immediately before giving the drugs (1000 hours) and blood was sampled by cardiac puncture after 6, 12, 24 hours and on days 4 and 7. The sera were separated by centrifugation at 500 x g for 20 min at 4°C and stored at -20°C.
Two weeks after orchidectomy, rats were administered either T-CDS1, testosterone propionate (TP; Steraloids Inc.) or DMSO by means of intravenous infusion into the right external jugular vein in an effort to more effectively enhance the brain delivery of testosterone. It has been shown that slow infusion improves brain delivery of drugs attached to the chemical-delivery systems. […]

In the case of “17β-{[(1-methyl-1,4-dihydropyridin-3-yl)carbonyl]oxy}-19-norpregn-4-en-20-yn-3-one [norethindrone-CDS]”, the “Amount of Drug in Dry Complex” value [1] was 0.6 mg/g, the “concentration of the norethindrone-CDS” value ([2]; 40% hpcd) was 7.13 mg/g and the “concentration of the norethindrone-CDS” value ([2]; 40% hpgcd) was 15.9 mg/g.
With `CN1C=CCC(C(=O)O[C@H]2CC[C@H]3[C@@H]4CCC5=CC(=O)CC[C@]5(C)[C@H]4CC[C@]23C)=C1` [T-CDS1, 17β-[(1,4-dihydro-1-methyl-3-pyridinylcarbonyl)oxy]androst-4-en-3-one] the solubility [3] was 17.1 mg/mL (≈ 41.8 mM), the “Amount of Drug in Dry Complex” value [1] was 29.0 mg/g and the “drug content of dried filtrate” value ([1]; lyophilized from 50% w/v aqueous HPCD, degree of substitution 5.1) was 29.6 mg per gram of cyclodextrin co. The toxicity on administration ([4]; DMSO vehicle, i.v. injection or infusion) was “respiratory distress and/or death” and the toxicity on administration ([4]; complexed with HPCD, tail vein injection) was “No respiratory distress or animal loss”.
For `CCC(=O)O[C@H]1CC[C@H]2[C@@H]3CCC4=CC(=O)CC[C@]4(C)[C@H]3CC[C@]12C` [Testosterone 17-Propionate], the solubility [3] was 38 mg/mL (≈ 110 mM) and the “Amount of Drug in Dry Complex” value [1] was 65.6 mg/g.
`C[C@]12CC[C@@H]3c4ccc(O)cc4CC[C@H]3[C@@H]1C[C@@H](O)[C@@H]2O` [Estriol] showed a solubility [3] of 40 mg/mL (≈ 139 mM).
`C[C@]12CC[C@H]3[C@@H](CCC4=CC(=O)CC[C@@]43C)[C@@H]1CC[C@@H]2O` [Testosterone] showed a solubility [3] of 38 mg/mL (≈ 132 mM).
For `COc1ccc2c(c1)CC[C@@H]1[C@@H]2CC[C@]2(C)[C@@H](O)CC[C@@H]12` [Estradiol 3-Methyl Ether], the solubility [3] was 30 mg/mL (≈ 105 mM).
For `CN1C=CCC(C(=O)NCCc2ccc(OC(=O)C(C)(C)C)c(OC(=O)C(C)(C)C)c2)=C1` [DA-CDS, 1-methyl-3-{{N-{β-[3,4-bis-(pivalyloxy)phenyl]ethyl}-carbamoyl}}-1,4-dihydropyridine], the solubility [3] was 16 mg/mL (≈ 36.2 mM) and the “Amount of Drug in Dry Complex” value [1] was 27 mg/g.
